In patent US12312599B2, “Methods, compositions, and kits for producing beige adipocytes and treating metabolic disorders” (MaineHealth, priority 2018, dated 2025):

Test system: iPSCs
Assay: Mesoderm induction of iPSCs: FOXF1 and IRX3 expression
Format: cell-based, human
Settings: SB added to in-house mesoderm induction medium
Procedure: PSCs were cultured in monolayer on hESC-qualified Matrigel-coated plates (Corning) and expanded in NutriStem hPSC XF Medium (Stemgent) and passaged with ReLeSR passaging reagent (STEMCELL Technologies). For mesoderm induction (Day 0), PSC colonies was dissociated with TrypLE cell dissociation reagent (Thermofisher) and plated on Matrigel coated plates in NutriStem medium containing 10 μM Y-27632 Rho kinase inhibitor (Calbiochem). The following day (Day 1), NutriStem medium was replaced with STEMdiff Mesoderm Induction Medium (MIM) (STEMCELL Technologies) and changed each day until day 5.
Note: Only use Y-27632 stock solutions that have been resuspended in DMSO. […] Conduct Mesoderm induction of iPSC in a laminar flow cabinet. • 3. Expand cells in NutriStem hPSC XF Medium overnight and change 100% of the medium without Y-27632 every 24 hours in a laminar flow cabinet for cell culture. When changing media, tilt plate up and allow media to pool at the bottom of wells. Aspirate the pooled medium without touching the surface of the plate. Replace with medium warmed to room temperature by pipetting 2 ml down the side of the wells. Cell Passaging • 1. Expand cell colonies until they have reached 70-80% confluence in high-density areas of the wells. High-density accumulation can occur along the edges of the well as well as the middle. Cells permitted to reach high density will lose their potential for differentiation after multiple passages. • 2. Prior to cell passage, warm cell wash buffer and NutriStem hPSC XF Medium to room temperature. Conduct cell passage in a laminar flow cabinet. • 3. Aspirate NutriStem hPSC XF Medium from wells with vacuum aspirator and wash with PBS without calcium or magnesium. Remove PBS and add 1 ml of ReLeSR reagent to side of well. Agitate plate to allow ReLeSR reagent to spread evenly on the surface. • 4. Aspirate ReLeSR reagent with vacuum aspirator after 30 seconds, which will leave behind a thin film of liquid. Incubate plate at 37° C. for 5-8 minutes undisturbed. • 5. Add fresh NutriStem hPSC XF Medium to wells and gently remove the cell colonies from the plate. Check that most cells have been dislodged from the plate surface with a light microscope. If not, rewash with more medium as needed. • 6. Transfer cell colony suspension in NutriStem hPSC XF Medium to Matrigel coated culture plates for further expansion (see Cell plating and culture above). Generation of iPSC Derived MSCs Mesoderm Induction of iPSC • 1. When iPSCs have reached 70-80% confluence, they will need to be passaged as single cells rather than colonies prior to mesoderm induction (day 0). • 2. Prepare for passage by warming cell wash buffer and NutriStem hPSC XF medium to room temperature and add Y-27632 Rho kinase inhibitor to medium at a final concentration of 10 μM. […]

NC(=O)c1ccc(-c2nc(-c3ccc4c(c3)OCO4)c(-c3ccccn3)[nH]2)cc1 [SB, SB431542]
FOXF1 expression: loss
IRX3 expression: increased expression
